The test system of data set [1] is H9 cells, a human T-cell line. The data set can be described thus: Vitamin C absorption (uptake) in H9 cells. The following applies: 50 μM. Format: cell-based. Here is the method: The rate of vitamin C absorption in H9 cells, a human T-cell line, was determined for the formulation of Example 1 and other vitamin C formulations.
At the times indicated in FIG. 1, cells were harvested and measured for vitamin C and protein content. The cellular vitamin C levels of the cells were measured using the 2,4-dinitrophenylhydrazine spectrophotometric technique (Bessey et al., 1947).

In data set [2] the test system is human T-lymphoblastic H9 cell line. The data set can be described thus: Inhibition of PHA- or bifenthrin-induced homotypic T-lymphocyte aggregation. The following applies: H9 cells, 0.5 μM vitamin C form, 30 minutes at 37° C.; for homotypic aggregation (aggregate size), activator: None: no activator. Format: cell-based. Here is the method: The ability to inhibit pesticide-induced T-lymphocyte aggregation was determined for the formulation of Example 1 and other vitamin C formulations.
The human T-lymphoblastic H9 cell line was incubated with vehicle (-) or with one of two activators of T-lymphocyte aggregation, phytohemagglutinin (PHA; […]) or bifenthrin ([…]). […] After treatment, the ability of each formulation to inhibit homotypic aggregation was measured by counting aggregate size at 400× magnification.

For data set [3], the system named is Plasma C-Reactive Protein. The data set can be described thus: Human plasma C-reactive protein after single oral dose. In kind it is in vivo. The following applies: for Plasma C-Reactive Protein Change: 0 vs 24 hrs. Here is the method: (§1) The human serum vitamin C, plasma C-reactive protein, oxidized LDL, and urine uric and oxalate levels were determined for the formulation of Example 1 and other vitamin C formulations.
(§2) Healthy volunteers maintained a low vitamin C diet for 14 days. […] Blood samples were collected immediately prior to the oral dose administration and at various time points post ingestion. Urine was collected over a 24-hour time period and saved for oxalate and uric acid assays. Serum vitamin C levels were measured by HPLC with coulometric electrochemical detection. Plasma C-reactive protein and oxidized LDL were measured by enzyme linked immunosorbent assay (ELISA) and urine uric acid and oxalate levels were measured by enzymatic methods.

Another data set relates to Plasma OxLDL. The data set can be described thus: Human plasma oxidized LDL after single oral dose. In kind it is in vivo. The following applies: for Plasma OxLDL Change: 0 vs 24 hrs. How it is done:
as §1, §2

Data set [4] can be described thus: Human serum vitamin C levels after single oral dose. In kind it is in vivo. Here is the method:
as §1, §2

Data set [5] can be described thus: Human urine uric acid after single oral dose. In kind it is in vivo. The following applies: single oral dose 1000 mg, urine collected over 24 hours. How it is done:
as §1, §2

The nature of data set [6]: Human urine oxalate after single oral dose. Format: in vivo. The following applies: single oral dose 1000 mg, urine collected over 24 hours. How it is done: as §1, §2
The mark [7] stands for this setting: 0 hrs (immediately prior to oral dose).
Where [8] appears, read: single oral dose 1000 mg, 24 hrs.

These results are taken from US20080207748A1, “VITAMIN C PREPARATION” (INNOVATION LABS, INC., priority 2007, published 2008).

On to `O=C1O[C@H]([C@@H](O)CO)C(O)=C1O` [AA, ascorbic acid], for which the “cellular vitamin C levels (peak)” value in data set [1] (at approximately two hours) was 31 nmol/mg protein. Also, the “cellular vitamin C levels” value in data set [1] (at fifteen minutes) worked out at 7±1.4 nmol/mg protein. In data set [2], the “homotypic aggregation (aggregate size), activator: PHA” value was determined as 75 ± 12; the “homotypic aggregation (aggregate size), activator: Bifenthrin” value is recorded as 130 ± 5; the “homotypic aggregation (aggregate size), activator: None” value is reported as 9 ± 4. The “Plasma C-Reactive Protein” value in data set [3] (setting [7]) was determined as 129.75 ± 26 ng/mL. Moreover, the “Plasma C-Reactive Protein Change” value in data set [3] came out at 12.75 ng/mL. Moreover, the “Plasma C-Reactive Protein” value in data set [3] (setting [8]) turned out to be 117.00 ± 33 ng/mL. Also, the “Plasma OxLDL Change” value in the data set on Plasma OxLDL was found to be 0.89 U/ml.

Take calcium ascorbate [CaA]: the “homotypic aggregation (aggregate size), activator: PHA” value in data set [2] was found to be 110 ± 10. The “homotypic aggregation (aggregate size), activator: Bifenthrin” value in data set [2] worked out at 137 ± 8. Moreover, the “homotypic aggregation (aggregate size), activator: None” value in data set [2] turned out to be 12 ± 4. The “Serum Vitamin C Levels” value amounted to 0.50 ± 0.05 mg/dL in data set [4] (0 hrs (immediately prior to single oral dose of 1000 mg)); 0.88 ± 0.10 mg/dL in data set [4] (single oral dose 1000 mg, 1 hr post-admin); 1.12 ± 0.17 mg/dL in data set [4] (single oral dose 1000 mg, 2 hrs post-admin); 1.03 ± 0.13 mg/dL in data set [4] (single oral dose 1000 mg, 4 hrs post-admin); 1.0 ± 0.13 mg/dL in data set [4] (single oral dose 1000 mg, 6 hrs post-admin); 0.59 ± 0.09 mg/dL in data set [4] (single oral dose 1000 mg, 24 hrs post-admin). For the same compound, the figures for the “Plasma C-Reactive Protein” value in data set [3] (setting [7]) and in data set [3] (setting [8]) were 189.17 ± 41 ng/mL and 180.83 ± 43 ng/mL, respectively. The “Plasma C-Reactive Protein Change” value in data set [3] is 8.34 ng/mL. Besides, the “Plasma OxLDL” value stood at 60.56 ± 5 U/ml in the data set with Plasma OxLDL (setting [7]) and 57.67 ± 6 U/ml in the data set with Plasma OxLDL (setting [8]). Moreover, the “Plasma OxLDL Change” value in the data set with Plasma OxLDL is 3.78 U/ml. Besides, in data set [5], the “Urine Markers: Uric Acid” value is 39.75 ± 10.5 mg/dL. Besides, the “Urine Markers: Oxalate” value in data set [6] was found to be 17.8 ± 2.6 mg/dL.
